{"source": "patent US20070281857A1", "about": "“FORMIC ACID AS AN HERBICIDE” (MARRONE ORGANIC INNOVATIONS, priority 2006, published 2007)", "key": {"[1]": {"tested_on": "Taraxacum officinale (dandelion)", "settings": "for germination rate (%) dandelion: one week, compared with control", "experimental": "(§1) Pots with 3-cm diameter were filled with 60 mL of silt clay loam soil passed through a 2-mm sieve, and five (5) seeds of either Taraxacum officinale (dandelion, representing a broadleaved weed) or Poa annua (annual bluegrass, representing a grass weed) were planted on the top. A solid form of the composition containing corn gluten meal granules (>2 mm diameter) soaked in 0%, 10%, 15% or 20% formic acid solution and dried were placed on the top of the soil at rates 0.1, 0.25, 0.5 and 1.0 g/pot. The pots were kept at optimum water content under growth lights with a 12-h light/dark period at room temperature, and the number of germinated seeds was counted after one week."}, "[2]": {"tested_on": "Poa annua (annual bluegrass)", "settings": "for germination rate (%) annual bluegrass: one week, compared with control", "experimental": "as §1"}, "[3]": {"tested_on": "wheat (Triticum aestivum)", "settings": "5%, spray", "experimental": "(§2) The herbicidal effect of formic acid was compared with that of acetic acid in a greenhouse study using radish (Raphanus sativus) and wheat (Triticum aestivum) as test plants. Both formic acid and acetic acid were diluted in water at 1, 3, and 5%, and deionized water was used as a control. Tween 20 was added to each of the solutions at a rate 0.04% for use as a surfactant. Solutions were applied to plants using a small handheld sprayer. Plants were evaluated at 24- and 72-hours after treatment for the % control."}, "[4]": {"tested_on": "radish (Raphanus sativus)", "settings": "spray, 1, 3 and 5% in water with 0.04% Tween 20", "experimental": "as §2"}, "[5]": {"settings": "10% formic acid in corn gluten meal granules >2 mm, 0.1 g/pot"}, "[6]": {"settings": "10% formic acid in corn gluten meal granules >2 mm, 0.25 g/pot"}, "[7]": {"settings": "10% formic acid in corn gluten meal granules >2 mm, 0.5 g/pot"}, "[8]": {"settings": "10% formic acid in corn gluten meal granules >2 mm, 1 g/pot"}, "[9]": {"settings": "15% formic acid in corn gluten meal granules >2 mm, 0.1 g/pot"}, "[10]": {"settings": "15% formic acid in corn gluten meal granules >2 mm, 0.25 g/pot"}, "[11]": {"settings": "15% formic acid in corn gluten meal granules >2 mm, 0.5 g/pot"}, "[12]": {"settings": "15% formic acid in corn gluten meal granules >2 mm, 1 g/pot"}, "[13]": {"settings": "20% formic acid in corn gluten meal granules >2 mm, 0.1 g/pot"}, "[14]": {"settings": "20% formic acid in corn gluten meal granules >2 mm, 0.25 g/pot"}, "[15]": {"settings": "20% formic acid in corn gluten meal granules >2 mm, 0.5 g/pot"}, "[16]": {"settings": "20% formic acid in corn gluten meal granules >2 mm, 1 g/pot"}, "[17]": {"settings": "bigger granules (>2 mm) imbedded in 15% formic acid"}}, "note": "Like-named read-outs stand apart in the source and are kept apart here.", "data": [{"smiles": "O=CO", "note": "[Formic acid]", "values": [{"measurement": "germination rate (%) dandelion", "setting": "[1]; [5]", "value": 60, "unit": "%"}, {"measurement": "germination rate (%) dandelion", "setting": "[1]; [6]", "value": 30, "unit": "%"}, {"measurement": "germination rate (%) dandelion", "setting": "[1]; [7]", "value": 30, "unit": "%"}, {"measurement": "germination rate (%) dandelion", "setting": "[1]; [8]", "value": 0, "unit": "%"}, {"measurement": "germination rate (%) dandelion", "setting": "[1]; [9]", "value": 30, "unit": "%"}, {"measurement": "germination rate (%) dandelion", "setting": "[1]; [10]", "value": 30, "unit": "%"}, {"measurement": "germination rate (%) dandelion", "setting": "[1]; [11]", "value": 30, "unit": "%"}, {"measurement": "germination rate (%) dandelion", "setting": "[1]; [12]", "value": 0, "unit": "%"}, {"measurement": "germination rate (%) dandelion", "setting": "[1]; [13]", "value": 0, "unit": "%"}, {"measurement": "germination rate (%) dandelion", "setting": "[1]; [14]", "value": 0, "unit": "%"}, {"measurement": "germination rate (%) dandelion", "setting": "[1]; [15]", "value": 0, "unit": "%"}, {"measurement": "germination rate (%) dandelion", "setting": "[1]; [16]", "value": 0, "unit": "%"}, {"measurement": "control of a broadleaved weed", "setting": "[1]; [17]", "value": "complete control"}, {"measurement": "germination rate (%) annual bluegrass", "setting": "[2]; [5]", "value": 100, "unit": "%"}, {"measurement": "germination rate (%) annual bluegrass", "setting": "[2]; [6]", "value": 100, "unit": "%"}, {"measurement": "germination rate (%) annual bluegrass", "setting": "[2]; [7]", "value": 30, "unit": "%"}, {"measurement": "germination rate (%) annual bluegrass", "setting": "[2]; [8]", "value": 100, "unit": "%"}, {"measurement": "germination rate (%) annual bluegrass", "setting": "[2]; [9]", "value": 0, "unit": "%"}, {"measurement": "germination rate (%) annual bluegrass", "setting": "[2]; [10]", "value": 0, "unit": "%"}, {"measurement": "germination rate (%) annual bluegrass", "setting": "[2]; [11]", "value": 0, "unit": "%"}, {"measurement": "germination rate (%) annual bluegrass", "setting": "[2]; [12]", "value": 100, "unit": "%"}, {"measurement": "germination rate (%) annual bluegrass", "setting": "[2]; [13]", "value": 100, "unit": "%"}, {"measurement": "germination rate (%) annual bluegrass", "setting": "[2]; [14]", "value": 100, "unit": "%"}, {"measurement": "germination rate (%) annual bluegrass", "setting": "[2]; [15]", "value": 100, "unit": "%"}, {"measurement": "germination rate (%) annual bluegrass", "setting": "[2]; [16]", "value": 100, "unit": "%"}, {"measurement": "control of the grass seed germination", "setting": "[2]; [17]", "value": "not effective"}, {"measurement": "% control of wheat seedlings", "setting": "[3]; 24-h", "value": 1, "unit": "%"}, {"measurement": "% control of wheat seedlings", "setting": "[3]; 72-h", "value": 4, "unit": "%"}, {"measurement": "% control of radish plants", "setting": "[4]; 24-h", "value": 100, "unit": "%"}, {"measurement": "% control of radish plants", "setting": "[4]; 72-h", "value": 100, "unit": "%"}]}]}
